The structures appear in SMILES notation.

The target of this experiment is T1, recombinant human GR (Homo sapiens, UniProt P04150).
T1 construct: purchased Panvera/Invitrogen P2812 (kit P2893)
T1 sequence (P04150 1-777): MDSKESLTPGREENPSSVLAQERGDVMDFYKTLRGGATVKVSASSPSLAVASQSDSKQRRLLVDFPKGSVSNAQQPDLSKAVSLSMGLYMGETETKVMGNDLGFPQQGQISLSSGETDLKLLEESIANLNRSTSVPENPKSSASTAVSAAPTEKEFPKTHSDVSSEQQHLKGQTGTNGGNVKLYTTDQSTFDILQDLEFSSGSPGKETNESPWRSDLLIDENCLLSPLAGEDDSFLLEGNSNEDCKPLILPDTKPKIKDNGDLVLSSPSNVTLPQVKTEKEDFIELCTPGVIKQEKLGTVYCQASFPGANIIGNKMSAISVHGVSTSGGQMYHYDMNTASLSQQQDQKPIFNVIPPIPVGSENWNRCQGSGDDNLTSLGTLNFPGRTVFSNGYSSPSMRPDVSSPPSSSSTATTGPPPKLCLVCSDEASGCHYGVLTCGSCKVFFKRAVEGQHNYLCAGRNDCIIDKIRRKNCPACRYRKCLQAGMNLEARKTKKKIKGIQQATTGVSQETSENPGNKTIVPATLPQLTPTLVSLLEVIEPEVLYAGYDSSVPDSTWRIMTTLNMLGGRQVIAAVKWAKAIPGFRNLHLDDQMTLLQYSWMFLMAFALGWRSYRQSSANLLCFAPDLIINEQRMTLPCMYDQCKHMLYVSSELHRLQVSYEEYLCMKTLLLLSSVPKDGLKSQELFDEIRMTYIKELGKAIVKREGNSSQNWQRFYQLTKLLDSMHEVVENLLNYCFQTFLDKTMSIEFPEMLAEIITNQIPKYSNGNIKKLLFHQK
Put plainly: Human Glucocorticoid Receptor (GR) Assay, fluorescence polarization. Type of experiment: binding. The settings on record: GS Red tracer, incubated 2 h at r.t., XLfit model 205, read-out: GRhuFL_FP_v2 Mean IC50. The gist of the method:
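After 2 h dark incubation at r.t., polarization reported displacement of the GS Red tracer from recombinant GR, in buffer with phosphate, molybdate, EDTA, DTT and Stabilizing Peptide. Controls: dexamethasone (100%) and DMSO (0%).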
A general note: Fluorescence polarisation rises when a labelled molecule tumbles more slowly, as on binding a larger partner.

As a reminder, the IC50 is the concentration at which inhibition is half-maximal. In the case of `Cc1ccc([C@@H](Oc2ccc3c(cnn3-c3ccc(F)cc3)c2)[C@H](C)NC(=O)c2ncc(C)s2)c(C)c1` [Example 197, N-[(1R,2S)-1-(2,4-dimethylphenyl)-1-[1-(4-fluorophenyl)indazol-5-yl]oxy-propan-2-yl]-5-methyl-1,3-thiazole-2-carboxamide], the IC50 came out at 4.9 nM. In the case of `COc1ccc([C@@H](Oc2ccc3c(cnn3-c3ccc(F)cc3)c2)[C@H](C)NC(=O)c2ncc(C)s2)cc1F` [Example 198, N-[(1R,2S)-1-(3-fluoro-4-methoxy-phenyl)-1-[1-(4-fluorophenyl)indazol-5-yl]oxy-propan-2-yl]-5-methyl-1,3-thiazole-2-carboxamide] it was 3.8 nM.

In the case of `Cc1cnc(C(=O)N[C@@H](C)[C@H](Oc2ccc3c(cnn3-c3ccc(F)cc3)c2)c2cccc(Cl)c2)s1` [Example 199, N-[(1R,2S)-1-(3-chlorophenyl)-1-[1-(4-fluorophenyl)indazol-5-yl]oxy-propan-2-yl]-5-methyl-1,3-thiazole-2-carboxamide], the IC50 worked out at 7.4 nM. For `Cc1cnc(C(=O)N[C@@H](C)[C@H](Oc2ccc3c(cnn3-c3ccc(F)cc3)c2)c2ccc(F)cc2C)s1` [Example 200, N-[(1R,2S)-1-(4-fluoro-2-methyl-phenyl)-1-[1-(4-fluorophenyl)indazol-5-yl]oxy-propan-2-yl]-5-methyl-1,3-thiazole-2-carboxamide], the half-inhibitory concentration (IC50) came out at 4.6 nM. As for `Cc1cnc(C(=O)N[C@@H](C)[C@H](Oc2ccc3c(cnn3-c3ccc(F)cc3)c2)c2cc(F)ccc2C)s1` [Example 201, N-[(1R,2S)-1-(5-fluoro-2-methyl-phenyl)-1-[1-(4-fluorophenyl)indazol-5-yl]oxy-propan-2-yl]-5-methyl-1,3-thiazole-2-carboxamide], the concentration for half-maximal inhibition (IC50) amounted to 5.9 nM.

`COc1ccc(F)cc1[C@@H](Oc1ccc2c(cnn2-c2ccc(F)cc2)c1)[C@H](C)NC(=O)c1ncc(C)s1` [Example 202, N-[(1R,2S)-1-(5-fluoro-2-methoxy-phenyl)-1-[1-(4-fluorophenyl)indazol-5-yl]oxy-propan-2-yl]-5-methyl-1,3-thiazole-2-carboxamide]: the half-inhibitory concentration (IC50) amounted to 5.3 nM. As to `COc1c(C)cc([C@@H](Oc2ccc3c(cnn3-c3ccc(F)cc3)c2)[C@H](C)NC(=O)c2ncc(C)s2)cc1C` [Example 203, N-[(1R,2S)-1-[1-(4-fluorophenyl)indazol-5-yl]oxy-1-(4-methoxy-3,5-dimethyl-phenyl)propan-2-yl]-5-methyl-1,3-thiazole-2-carboxamide], the half-maximal inhibitory concentration (IC50) came out at 5.4 nM. In the case of `Cc1cnc(C(=O)N[C@@H](C)[C@H](Oc2ccc3c(cnn3-c3ccc(F)cc3)c2)c2ccc(Cl)cc2)s1` [Example 204, N-[(1R,2S)-1-(4-chlorophenyl)-1-[1-(4-fluorophenyl)indazol-5-yl]oxy-propan-2-yl]-5-methyl-1,3-thiazole-2-carboxamide], the half-maximal inhibitory concentration (IC50) was 6.7 nM.

Turning to `Cc1cnc(C(=O)N[C@@H](C)[C@H](Oc2ccc3c(cnn3-c3ccc(F)cc3)c2)c2cc(F)cc(Cl)c2)s1` [Example 205, N-[(1R,2S)-1-(3-chloro-5-fluoro-phenyl)-1-[1-(4-fluorophenyl)indazol-5-yl]oxy-propan-2-yl]-5-methyl-1,3-thiazole-2-carboxamide], the 50% inhibitory concentration (IC50) is 6.6 nM. For `Cc1cnc(C(=O)N[C@@H](C)[C@H](Oc2ccc3c(cnn3-c3ccc(F)cc3)c2)c2cc(C)c(C)cc2C)s1` [Example 206, N-[(1R,2S)-1-[1-(4-fluorophenyl)indazol-5-yl]oxy-1-(2,4,5-trimethylphenyl)propan-2-yl]-5-methyl-1,3-thiazole-2-carboxamide], the IC50 stood at 7.5 nM. As to `Cc1cccc([C@@H](Oc2ccc3c(cnn3-c3ccc(F)cc3)c2)[C@H](C)NC(=O)c2ncc(C)s2)c1` [Example 207, N-[(1R,2S)-1-[1-(4-fluorophenyl)indazol-5-yl]oxy-1-(3-methylphenyl)propan-2-yl]-5-methyl-1,3-thiazole-2-carboxamide], the half-maximal inhibitory concentration (IC50) was found to be 8.8 nM.

On to `Cc1cnc(C(=O)N[C@@H](C)[C@H](Oc2ccc3c(cnn3-c3ccc(F)cc3)c2)c2ccc(C(C)(C)C)cc2)s1` [Example 208, N-[(1R,2S)-1-[1-(4-fluorophenyl)indazol-5-yl]oxy-1-(4-tert-butylphenyl)propan-2-yl]-5-methyl-1,3-thiazole-2-carboxamide], for which the half-inhibitory concentration (IC50) amounted to 8.2 nM. The result for `COc1ccccc1[C@@H](Oc1ccc2c(cnn2-c2ccc(F)cc2)c1)[C@H](C)NC(=O)c1ncc(C)s1` [Example 209, N-[(1R,2S)-1-[1-(4-fluorophenyl)indazol-5-yl]oxy-1-(2-methoxyphenyl)propan-2-yl]-5-methyl-1,3-thiazole-2-carboxamide] reads 4.1 nM. In the case of `Cc1cnc(C(=O)N[C@@H](C)[C@H](Oc2ccc3c(cnn3-c3ccc(F)cc3)c2)c2ccc3c(c2)OCO3)s1` [Example 210, N-[(1R,2S)-1-benzo[1,3]dioxol-5-yl-1-[1-(4-fluorophenyl)indazol-5-yl]oxy-propan-2-yl]-5-methyl-1,3-thiazole-2-carboxamide], the half-maximal inhibitory concentration (IC50) came to 5.2 nM. As to `Cc1ccc([C@@H](Oc2ccc3c(cnn3-c3ccc(F)cc3)c2)[C@H](C)NC(=O)C2(C)CC2)cc1C` [Example 211, N-[(1R,2S)-1-(3,4-dimethylphenyl)-1-[1-(4-fluorophenyl)indazol-5-yl]oxy-propan-2-yl]-1-methyl-cyclopropane-1-carboxamide], the IC50 stood at 3 nM. As to `C[C@H](NC(=O)C1(C)CC1)[C@H](Oc1ccc2c(cnn2-c2ccc(F)cc2)c1)c1ccc(F)c(F)c1` [Example 212, N-[(1R,2S)-1-(3,4-difluorophenyl)-1-[1-(4-fluorophenyl)indazol-5-yl]oxy-propan-2-yl]-1-methyl-cyclopropane-1-carboxamide], the half-inhibitory concentration (IC50) was found to be 5.2 nM.

In the case of `Cc1ccc([C@@H](Oc2ccc3c(cnn3-c3ccc(F)cc3)c2)[C@H](C)NC(=O)C2(C)CC2)cc1F` [Example 213, N-[(1R,2S)-1-(3-fluoro-4-methyl-phenyl)-1-[1-(4-fluorophenyl)indazol-5-yl]oxy-propan-2-yl]-1-methyl-cyclopropane-1-carboxamide], the IC50 was 4.4 nM. With `C[C@H](NC(=O)C1(C)CC1)[C@H](Oc1ccc2c(cnn2-c2ccc(F)cc2)c1)c1cccc(F)c1` [Example 214, N-[(1R,2S)-1-(3-fluorophenyl)-1-[1-(4-fluorophenyl)indazol-5-yl]oxy-propan-2-yl]-1-methyl-cyclopropane-1-carboxamide], the half-inhibitory concentration (IC50) amounted to 4.5 nM. On to `Cc1ccc(C)c([C@@H](Oc2ccc3c(cnn3-c3ccc(F)cc3)c2)[C@H](C)NC(=O)C2(C)CC2)c1` [Example 215, N-[(1R,2S)-1-(2,5-dimethylphenyl)-1-[1-(4-fluorophenyl)indazol-5-yl]oxy-propan-2-yl]-1-methyl-cyclopropane-1-carboxamide], for which the IC50 came to 4.4 nM. For the compound `Cc1ccc([C@@H](Oc2ccc3c(cnn3-c3ccc(F)cc3)c2)[C@H](C)NC(=O)C2(C)CC2)c(C)c1` [Example 216, N-[(1R,2S)-1-(2,4-dimethylphenyl)-1-[1-(4-fluorophenyl)indazol-5-yl]oxy-propan-2-yl]-1-methyl-cyclopropane-1-carboxamide], the IC50 came to 4.7 nM. Take `COc1ccc([C@@H](Oc2ccc3c(cnn3-c3ccc(F)cc3)c2)[C@H](C)NC(=O)C2(C)CC2)cc1F` [Example 217, N-[(1R,2S)-1-(3-fluoro-4-methoxy-phenyl)-1-[1-(4-fluorophenyl)indazol-5-yl]oxy-propan-2-yl]-1-methyl-cyclopropane-1 carboxamide]: the 50% inhibitory concentration (IC50) came out at 3.9 nM.

In the case of `C[C@H](NC(=O)C1(C)CC1)[C@H](Oc1ccc2c(cnn2-c2ccc(F)cc2)c1)c1cccc(Cl)c1` [Example 218, N-[(1R,2S)-1-(3-chlorophenyl)-1-[1-(4-fluorophenyl)indazol-5-yl]oxy-propan-2-yl]-1-methyl-cyclopropane-1-carboxamide], the IC50 amounted to 3.3 nM. In the case of `Cc1cc(F)ccc1[C@@H](Oc1ccc2c(cnn2-c2ccc(F)cc2)c1)[C@H](C)NC(=O)C1(C)CC1` [Example 219, N-[(1R,2S)-1-(4-fluoro-2-methyl-phenyl)-1-[1-(4-fluorophenyl)indazol-5-yl]oxy-propan-2-yl]-1-methyl-cyclopropane-1-carboxamide] it was 2.8 nM; in that of `Cc1ccc(F)cc1[C@@H](Oc1ccc2c(cnn2-c2ccc(F)cc2)c1)[C@H](C)NC(=O)C1(C)CC1` [Example 220, N-[(1R,2S)-1-(5-fluoro-2-methyl-phenyl)-1-[1-(4-fluorophenyl)indazol-5-yl]oxy-propan-2-yl]-1-methyl-cyclopropane-1-carboxamide], 4.2 nM. With `COc1c(C)cc([C@@H](Oc2ccc3c(cnn3-c3ccc(F)cc3)c2)[C@H](C)NC(=O)C2(C)CC2)cc1C` [Example 221, N-[(1R,2S)-1-[1-(4-fluorophenyl)indazol-5-yl]oxy-1-(4-methoxy-3,5-dimethyl-phenyl)propan-2-yl]-1-methyl-cyclopropane-1-carboxamide], the concentration for half-maximal inhibition (IC50) worked out at 4.4 nM.

These data come from patent US8143290B2, “Chemical compounds 572” (AstraZeneca AB, priority 2006, dated 2012).
